In brackets after ≈: the same amount, converted by molar mass. Like-named read-outs stand apart in the source and are kept apart here.
Legend:
SAS cells = test: SAS CTG proliferation assay (120 h) (HNSCC, wt amplified); format: cell-based
In short: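 Viability measured by CellTiter-Glo luminescence, normalized to DMSO wells, after 120 h compound treatment of SAS cells. Cells grown in DMEM:F12 plus 10% FCS at 300 cells per well, dosed the day after seeding. Four-parameter fit gives IC50.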

[1] = Metabolic (microsomal) stability assay, human liver microsomes (HLM); format: in vitro ADME; conditions: predicted clearance as percent of liver blood flow, 1 μM
In short: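 LC-MS/MS tracked parent disappearance at 0, 5, 15, 30 and 60 min in NADPH-initiated incubations with 1 mg/mL human microsomal protein and 1 μM compound at 37°C, pH 7.5. First-order fits gave intrinsic clearance, which was scaled up and reported as % QH. NADPH-free controls were also run.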

[2] = Plasma protein binding assay (PPB), equilibrium dialysis, 10% FCS in PBS; format: in vitro ADME; conditions: bovine, read-out: PPB 10% FCS (% fu)
In short: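 Test compound (1-10 μmol/L) in 10% FCS in PBS was dialysed for 3-5 h at 37° C versus PBS ± dextran across a semipermeable membrane. LC-MS of both compartments after protein precipitation gave Cserum and Cbuffer, from which the unbound fraction fu was derived.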

[3] = Solubility measurement (DMSO solution method), McIlvaine buffer pH 4.5 or 6.8; format: physicochemical; conditions: aqueous buffer, kinetic from dmso stock, DMSO stock diluted to 250 μM, 24 h shaking at ambient temperature
In short: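 Filtrate concentration by LC-UV, calibrated to a known-concentration reference dissolved completely in acetonitrile/water (1:1). Samples came from 250 µM final dilutions of DMSO stock in pH 4.5 or 6.8 McIlvaine buffer, shaken 24 h at ambient temperature, then filtered.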

[4] = Caco-2 assay (permeability PappAB, PappBA, efflux ratio); format: in vitro ADME; conditions: human, Caco-2, 10 μM test compound, pH 7.4; for Papp A→B at 90 min, 10 μM: apical to basolateral; for efflux ratio at 90 min, 10 μM: efflux ratio PappBA/PappAB, read-out: Caco ER
In short: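 Bidirectional permeability (apical-to-basolateral and reverse) through polarized Caco-2 monolayers, BSA 0.25% on each side, 37 °C. Donor and receiver sampled at 0-90 min after 25-30 min preincubation, analysed by HPLC/MS/MS. Apparent permeabilities derived from transfer rate normalised to area and t=0 donor concentration; ER taken as PappBA over PappAB.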

[5] = McIlvaine buffer pH 4.5, read-out: solubility pH 4.5
[6] = McIlvaine buffer pH 6.8, read-out: solubility pH 6.8

HLM QH [1]	fraction unbound [2]	solubility at 24 h [3, 5]	solubility at 24 h [3, 6]	Papp A→B at 90 min, 10 μM [4]	efflux ratio at 90 min, 10 μM [4]	Structure (SMILES)	IC50 (SAS cells)
35%	0.13	> 148 µg/mL	86 µg/mL (≈ 131 µM)	7.1 ×10⁻⁶ cm/s	5.5	CC(C)NC(=O)Cc1ccn(-c2cc(O[C@@H](C)[C@@H]3CCCN3C)nc(-c3noc4c3CCC[C@@]43CCCc4sc(N)c(C#N)c43)n2)n1 [II-182]	32 nM
39%	0.17	> 149 µg/mL	115 µg/mL (≈ 188 µM)	–	5.8	C[C@H](Oc1cc(-n2cc3c(n2)CN(C)C3)nc(-c2noc3c2CCC[C@@]32CCCc3sc(N)c(C#N)c32)n1)[C@@H]1CCCN1C [II-174]	248 nM
<24%	0.01	–	–	–	0.9	C[C@H](Oc1cc(-n2nccc2-c2ccncc2)nc(-c2noc3c2CCC[C@@]32CCCc3sc(N)c(C#N)c32)n1)[C@@H]1CCCN1C [II-131]	623 nM
<24%	0.16	> 152 µg/mL	103 µg/mL (≈ 164 µM)	7.9 ×10⁻⁶ cm/s	5.8	C[C@H](Oc1cc(-n2ccc(C3(O)COC3)n2)nc(-c2noc3c2CCC[C@@]32CCCc3sc(N)c(C#N)c32)n1)[C@@H]1CCCN1C [II-189]	51 nM
<24%	0.02	20 µg/mL (≈ 28.8 µM)	4 µg/mL (≈ 5.77 µM)	–	2.2	C[C@H](Oc1cc(-n2ccc(-c3cn([C@@H]4CCOC4)nn3)n2)nc(-c2noc3c2CCC[C@@]32CCCc3sc(N)c(C#N)c32)n1)[C@@H]1CCCN1C [II-211]	17 nM
<24%	0.54	> 164 µg/mL	> 137 µg/mL	0.1 ×10⁻⁶ cm/s	138	C[C@H](Oc1cc(C2=CCNCC2)nc(-c2noc3c2CCC[C@@]32CCCc3sc(N)c(C#N)c32)n1)[C@@H]1CCCN1C [II-164]	1500 nM
46%	0.14	> 140 µg/mL	119 µg/mL (≈ 189 µM)	5.4 ×10⁻⁶ cm/s	4.6	CO[C@@H]1C[C@@H]([C@H](C)Oc2cc(N3CCNC4(CC4)C3)nc(-c3noc4c3CCC[C@@]43CCCc4sc(N)c(C#N)c43)n2)N(C)C1 [II-187]	1150 nM
69%	0.03	> 147 µg/mL	< 1 µg/mL	–	0.7	C[C@H](Oc1nc(-c2noc3c2CCC[C@@]32CCCc3sc(N)c(C#N)c32)nc(N2C[C@H](C)NC3(CC3)C2)c1F)[C@@H]1C[C@@H](F)CN1C [II-157]	1190 nM
28%	0.6	123 µg/mL (≈ 197 µM)	83 µg/mL (≈ 133 µM)	–	7.9	C[C@H](Oc1cc(-n2cc3c(n2)CCN(C)C3)nc(-c2noc3c2CCC[C@@]32CCCc3sc(N)c(C#N)c32)n1)[C@@H]1CCCN1C [II-141]	873 nM
<24%	0.41	> 144 µg/mL	> 146 µg/mL	8.7 ×10⁻⁶ cm/s	19.9	C[C@H](Oc1cc(N2C[C@H](C)N(C)[C@@H](C)C2)nc(-c2noc3c2CCC[C@@]32CCCc3sc(N)c(C#N)c32)n1)[C@@H]1CCCN1C [II-173]	751 nM
<24%	0.05	16 µg/mL (≈ 23.1 µM)	< 1 µg/mL	–	2.9	C[C@H](Oc1cc(-n2ccc(-c3cn([C@H]4CCOC4)nn3)n2)nc(-c2noc3c2CCC[C@@]32CCCc3sc(N)c(C#N)c32)n1)[C@@H]1CCCN1C [II-212]	19 nM
<24%	0.23	> 130 µg/mL	15 µg/mL (≈ 23.4 µM)	4.2 ×10⁻⁶ cm/s	5.2	C[C@H](Oc1cc(-c2ccn(C[C@H]3CCOC3)n2)nc(-c2noc3c2CCC[C@@]32CCCc3sc(N)c(C#N)c32)n1)[C@@H]1CCCN1C [II-129]	18 nM
<24%	0.02	5 µg/mL (≈ 7.06 µM)	< 1 µg/mL	–	2.6	C[C@H](Oc1cc(-n2ccc(-c3cn(C4CCOCC4)nn3)n2)nc(-c2noc3c2CCC[C@@]32CCCc3sc(N)c(C#N)c32)n1)[C@@H]1CCCN1C [II-210]	14 nM
64%	0.13	> 149 µg/mL	57 µg/mL (≈ 89.8 µM)	2.5 ×10⁻⁶ cm/s	11.6	C[C@H](Oc1cc(N2CCNC3(COC3)C2)nc(-c2noc3c2CCC[C@@]32CCCc3sc(N)c(C#N)c32)n1)[C@@H]1C[C@@H](F)CN1C [II-150]	91 nM
<24%	0.05	> 166 µg/mL	58 µg/mL (≈ 83.6 µM)	4.4 ×10⁻⁶ cm/s	3.6	C[C@H](Oc1cc(-n2cc3ccn([C@H]4CCOC4)c(=O)c3n2)nc(-c2noc3c2CCC[C@@]32CCCc3sc(N)c(C#N)c32)n1)[C@@H]1CCCN1C [II-202]	21 nM
36%	0.46	> 152 µg/mL	125 µg/mL (≈ 198 µM)	0.5 ×10⁻⁶ cm/s	70.2	C[C@H](Oc1cc(N2CCNC[C@]23CCOC3)nc(-c2onc3c2CCC[C@@]32CCCc3sc(N)c(C#N)c32)n1)[C@@H]1CCCN1C [I-12]	218 nM
30%	0.24	124 µg/mL (≈ 185 µM)	59 µg/mL (≈ 88.1 µM)	10 ×10⁻⁶ cm/s	2.5	C[C@H](Oc1cc(-n2ccc(C(=O)N[C@@H]3CCOC3)n2)nc(-c2noc3c2CCC[C@@]32CCCc3sc(N)c(C#N)c32)n1)[C@@H]1CCCN1C [II-192]	25 nM
70%	0.04	> 153 µg/mL	3 µg/mL (≈ 4.71 µM)	–	2.9	C[C@H](Oc1nc(-c2noc3c2CCC[C@@]32CCCc3sc(N)c(C#N)c32)nc(N2CCNC3(CC3)C2)c1F)[C@@H]1C[C@@H](F)CN1C [II-155]	471 nM
48%	0.61	> 121 µg/mL	91 µg/mL (≈ 163 µM)	17 ×10⁻⁶ cm/s	1.2	C[C@H](Oc1cc(-n2cncn2)nc(-c2onc3c2CCC[C@@]32CCCc3sc(N)c(C#N)c32)n1)[C@@H]1CCCN1C [I-18]	72 nM
52%	0.25	> 146 µg/mL	< 1 µg/mL	12 ×10⁻⁶ cm/s	3.3	C[C@H](Oc1cc(N2CCN(C)C3(COC3)C2)nc(-c2noc3c2CCC[C@@]32CCCc3sc(N)c(C#N)c32)n1)[C@@H]1C[C@@H](F)CN1C [II-148]	421 nM
33%	0.32	118 µg/mL (≈ 197 µM)	24 µg/mL (≈ 40.1 µM)	3.3 ×10⁻⁶ cm/s	7	CC(C)N1CCCN(c2cc(-c3ccn(C)n3)nc(-c3noc4c3CCC[C@@]43CCCc4sc(N)c(C#N)c43)n2)[C@@H](C)C1 [II-170]	1050 nM
62%	0.47	> 139 µg/mL	> 128 µg/mL	1 ×10⁻⁶ cm/s	39.5	C[C@H](Oc1cc(-n2cc3c(n2)CNC3)nc(-c2noc3c2CCC[C@@]32CCCc3sc(N)c(C#N)c32)n1)[C@@H]1CCCN1C [II-168]	441 nM
45%	0.17	> 164 µg/mL	< 1 µg/mL	–	1.2	C[C@H](Oc1cc(N2CCN(C)C3(CC3)C2)nc(-c2noc3c2CCC[C@@]32CCCc3sc(N)c(C#N)c32)n1)[C@@H]1C[C@@H](F)CN1C [II-149]	849 nM
63%	0.01	> 140 µg/mL	< 1 µg/mL	–	–	C[C@H](Oc1nc(-c2noc3c2CCC[C@@]32CCCc3sc(N)c(C#N)c32)nc(N2CCN(C)C3(CC3)C2)c1Cl)[C@@H]1C[C@@H](F)CN1C [II-176]	4940 nM
<24%	0.37	–	–	0.4 ×10⁻⁶ cm/s	47.6	C[C@@H]1CN(c2cc(O[C@@H](C)[C@@H]3CCCN3C)nc(-c3noc4c3CCC[C@@]43CCCc4sc(N)c(C#N)c43)n2)CCN1 [II-161]	1580 nM

From patent publication US20240174690A1, “ANNULATED 2-AMINO-3-CYANO THIOPHENES AND DERIVATIVES FOR THE TREATMENT OF CANCER” (BOEHRINGER INGELHEIM INTERNATIONAL GMBH, priority 2021, published 2024)
